Measurements as given in patent US12522607B2, “Substituted pyrazolo[3,4-d]pyrimidines as wee-1 inhibitors” (WIGEN BIOMEDICINE TECHNOLOGY (SHANGHAI) CO., LTD., priority 2020, dated 2026).

Experiments:
Wee-1 kinase = target: T1, Wee-1 kinase (Homo sapiens, UniProt P30291); test: Inhibitory activity against Wee-1 kinase (Lanthra Screen Wee-1 kinase kit, Tracer 178); format: binding; conditions: Wee-1 kinase 5 nM, Tracer 178 50 nM, 1 h room temperature
T1 construct: purchased Invitrogen
Procedure, shortened: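 LanthaScreen binding format: Wee-1 kinase (5 nM final) with Eu-anti-GST antibody (2 nM final) and kinase Tracer 178 (50 nM final), compounds serially diluted in DMSO. 1 h at room temperature before reading. IC50 relative to DMSO control.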

HT29 cells = test: Antiproliferative activity against HT29 cells (Cell Titer-Lumi, ATP content); format: cell-based; conditions: Homo sapiens, HT-29, 72 after compound addition, read-out: HT-29 cells Anti-proliferative activity (IC50 for the inhibition against HT-29 cell growth)
Procedure, shortened: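 3000 cells per well, allowed to adhere overnight, then exposed to a gradient dilution of compound for 72 (units as printed). Cellular ATP read by luminescence (Cell Titer-Lumi) as a growth measure; IC50 for growth inhibition calculated.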

T1 sequence (P30291 whole entry): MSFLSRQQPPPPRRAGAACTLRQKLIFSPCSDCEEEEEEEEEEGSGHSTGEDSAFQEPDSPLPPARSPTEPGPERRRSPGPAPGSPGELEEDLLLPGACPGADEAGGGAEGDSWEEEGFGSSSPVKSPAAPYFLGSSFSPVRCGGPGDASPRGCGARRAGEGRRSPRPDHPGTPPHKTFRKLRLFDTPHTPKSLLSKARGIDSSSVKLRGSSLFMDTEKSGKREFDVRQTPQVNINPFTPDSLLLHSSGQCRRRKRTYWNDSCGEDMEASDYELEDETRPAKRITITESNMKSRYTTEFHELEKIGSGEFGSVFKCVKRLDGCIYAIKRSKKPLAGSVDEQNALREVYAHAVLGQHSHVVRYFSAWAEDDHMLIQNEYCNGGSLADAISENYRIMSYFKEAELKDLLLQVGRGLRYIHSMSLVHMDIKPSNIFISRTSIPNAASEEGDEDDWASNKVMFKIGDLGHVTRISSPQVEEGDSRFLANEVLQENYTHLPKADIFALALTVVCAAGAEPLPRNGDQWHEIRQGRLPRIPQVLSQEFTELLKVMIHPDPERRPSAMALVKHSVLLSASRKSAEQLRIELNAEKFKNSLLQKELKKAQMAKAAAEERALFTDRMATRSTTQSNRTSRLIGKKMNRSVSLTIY

Compound | IC50 (Wee-1 kinase) [µM] | IC50 (HT29 cells) [µM]
C=CCn1c(=O)c2cnc(Nc3ccc(N4CC5(CN(C)C5)C4)c(C)c3)nc2n1-c1ccc(=O)n(C(C)C)n1 [Compound 158] | ≤ 0.03 | ≤ 1
C=CCn1c(=O)c2cnc(Nc3ccc(N4CC5(CN(C)C5)C4)c(OC)c3)nc2n1-c1ccc(=O)n(C(C)C)n1 [Compound 159] | ≤ 0.03 | ≤ 1
C=CCn1c(=O)c2cnc(Nc3ccc(N4CC5(CCNC5)C4)cc3)nc2n1-c1ccc(=O)n(C(C)C)n1 [Compound 160] | ≤ 0.03 | 1 to 3
C=CCn1c(=O)c2cnc(Nc3ccc(N4CC5(CCNC5)C4)c(C)c3)nc2n1-c1ccc(=O)n(C(C)C)n1 [Compound 161] | ≤ 0.03 | 1 to 3
C=CCn1c(=O)c2cnc(Nc3ccc(N4CC5(CCNC5)C4)c(OC)c3)nc2n1-c1ccc(=O)n(C(C)C)n1 [Compound 162] | ≤ 0.03 | ≤ 1
C=CCn1c(=O)c2cnc(Nc3ccc(N4CC5(CCN(C)C5)C4)cc3)nc2n1-c1ccc(=O)n(C(C)C)n1 [Compound 163] | ≤ 0.03 | ≤ 1
C=CCn1c(=O)c2cnc(Nc3ccc(N4CC5(CCN(C)C5)C4)c(C)c3)nc2n1-c1ccc(=O)n(C(C)C)n1 [Compound 164] | ≤ 0.03 | ≤ 1
C=CCn1c(=O)c2cnc(Nc3ccc(N4CC5(CCN(C)C5)C4)c(OC)c3)nc2n1-c1ccc(=O)n(C(C)C)n1 [Compound 165] | ≤ 0.03 | ≤ 1
C=CCn1c(=O)c2cnc(Nc3ccc(N4CC5(CCNCC5)C4)cc3)nc2n1-c1ccc(=O)n(C(C)C)n1 [Compound 166] | 0.03 to 0.1 | 1 to 3
C=CCn1c(=O)c2cnc(Nc3ccc(N4CC5(CCNCC5)C4)c(C)c3)nc2n1-c1ccc(=O)n(C(C)C)n1 [Compound 167] | 0.03 to 0.1 | 1 to 3
C=CCn1c(=O)c2cnc(Nc3ccc(N4CC5(CCNCC5)C4)c(OC)c3)nc2n1-c1ccc(=O)n(C(C)C)n1 [Compound 168] | 0.03 to 0.1 | 1 to 3
C=CCn1c(=O)c2cnc(Nc3ccc(N4CCC5(CNC5)C4)cc3)nc2n1-c1ccc(=O)n(C(C)C)n1 [Compound 169] | ≤ 0.03 | 1 to 3
C=CCn1c(=O)c2cnc(Nc3ccc(N4CCC5(CNC5)C4)c(C)c3)nc2n1-c1ccc(=O)n(C(C)C)n1 [Compound 170] | ≤ 0.03 | ≤ 1
C=CCn1c(=O)c2cnc(Nc3ccc(N4CCC5(CNC5)C4)c(OC)c3)nc2n1-c1ccc(=O)n(C(C)C)n1 [Compound 171] | ≤ 0.03 | ≤ 1
C=CCn1c(=O)c2cnc(Nc3ccc(N4CCC5(CN(C)C5)C4)cc3)nc2n1-c1ccc(=O)n(C(C)C)n1 [Compound 172] | ≤ 0.03 | ≤ 1
C=CCn1c(=O)c2cnc(Nc3ccc(N4CCC5(CN(C)C5)C4)c(C)c3)nc2n1-c1ccc(=O)n(C(C)C)n1 [Compound 173] | ≤ 0.03 | ≤ 1
C=CCn1c(=O)c2cnc(Nc3ccc(N4CCC5(CN(C)C5)C4)c(OC)c3)nc2n1-c1ccc(=O)n(C(C)C)n1 [Compound 174] | ≤ 0.03 | ≤ 1
C=CCn1c(=O)c2cnc(Nc3ccc(N4CCC5(CC4)CNC5)cc3)nc2n1-c1ccc(=O)n(C(C)C)n1 [Compound 175] | ≤ 0.03 | 1 to 3
C=CCn1c(=O)c2cnc(Nc3ccc(N4CCC5(CC4)CNC5)c(C)c3)nc2n1-c1ccc(=O)n(C(C)C)n1 [Compound 176] | ≤ 0.03 | ≤ 1
C=CCn1c(=O)c2cnc(Nc3ccc(N4CCC5(CC4)CNC5)c(OC)c3)nc2n1-c1ccc(=O)n(C(C)C)n1 [Compound 177] | ≤ 0.03 | ≤ 1
C=CCn1c(=O)c2cnc(Nc3ccc(N4CCC5(CC4)CN(C)C5)cc3)nc2n1-c1ccc(=O)n(C(C)C)n1 [Compound 178] | ≤ 0.03 | ≤ 1
C=CCn1c(=O)c2cnc(Nc3ccc(N4CCC5(CC4)CN(C)C5)c(C)c3)nc2n1-c1ccc(=O)n(C(C)C)n1 [Compound 179] | ≤ 0.03 | ≤ 1
C=CCn1c(=O)c2cnc(Nc3ccc(N4CCC5(CC4)CN(C)C5)c(OC)c3)nc2n1-c1ccc(=O)n(C(C)C)n1 [Compound 180] | ≤ 0.03 | ≤ 1
C=CCn1c(=O)c2cnc(Nc3ccc(N4CCC5(CCNCC5)CC4)cc3)nc2n1-c1ccc(=O)n(C(C)C)n1 [Compound 181] | ≤ 0.03 | 1 to 3

Compound | IC50 (Wee-1 kinase) [µM] | IC50 (HT29 cells) [µM]
C=CCn1c(=O)c2cnc(Nc3ccc(N4CCC5(CCNCC5)CC4)c(C)c3)nc2n1-c1ccc(=O)n(C(C)C)n1 [Compound 182] | ≤ 0.03 | ≤ 1
C=CCn1c(=O)c2cnc(Nc3ccc(N4CCC5(CCNCC5)CC4)c(OC)c3)nc2n1-c1ccc(=O)n(C(C)C)n1 [Compound 183] | ≤ 0.03 | ≤ 1
C=CCn1c(=O)c2cnc(Nc3ccc(N4CCC5(CCN(C)CC5)CC4)cc3)nc2n1-c1ccc(=O)n(C(C)C)n1 [Compound 184] | ≤ 0.03 | ≤ 1
C=CCn1c(=O)c2cnc(Nc3ccc(N4CCC5(CCN(C)CC5)CC4)c(C)c3)nc2n1-c1ccc(=O)n(C(C)C)n1 [Compound 185] | ≤ 0.03 | ≤ 1
C=CCn1c(=O)c2cnc(Nc3ccc(N4CCC5(CCN(C)CC5)CC4)c(OC)c3)nc2n1-c1ccc(=O)n(C(C)C)n1 [Compound 186] | ≤ 0.03 | ≤ 1
C=CCn1c(=O)c2cnc(Nc3ccc(N4CC5(CCN5C)C4)c(C)c3)nc2n1-c1ccc(=O)n(C(C)C)n1 [Compound 187] | ≤ 0.03 | ≤ 1
C=CCn1c(=O)c2cnc(Nc3ccc(N4CC5(CCCN5C)C4)c(C)c3)nc2n1-c1ccc(=O)n(C(C)C)n1 [Compound 188] | ≤ 0.03 | ≤ 1
C=CCn1c(=O)c2cnc(Nc3ccc(N4CC5(CCCCN5C)C4)c(C)c3)nc2n1-c1ccc(=O)n(C(C)C)n1 [Compound 189] | 0.03 to 0.1 | ≤ 1
C=CCn1c(=O)c2cnc(Nc3ccc(C4CCNCC4)cc3)nc2n1-c1ccc(=O)n(C(C)C)n1 [Compound 190] | ≤ 0.03 | ≤ 1
C=CCn1c(=O)c2cnc(Nc3ccc(C4CCN(C)CC4)cc3)nc2n1-c1ccc(=O)n(C(C)C)n1 [Compound 191] | ≤ 0.03 | ≤ 1
C=CCn1c(=O)c2cnc(Nc3ccc(C4CCNCC4)c(C)c3)nc2n1-c1ccc(=O)n(C(C)C)n1 [Compound 192] | ≤ 0.03 | ≤ 1
C=CCn1c(=O)c2cnc(Nc3ccc(C4CCN(C)CC4)c(C)c3)nc2n1-c1ccc(=O)n(C(C)C)n1 [Compound 193] | ≤ 0.03 | ≤ 1
C=CCn1c(=O)c2cnc(Nc3ccc(C4CCNCC4)c(OC)c3)nc2n1-c1ccc(=O)n(C(C)C)n1 [Compound 194] | ≤ 0.03 | ≤ 1
C=CCn1c(=O)c2cnc(Nc3ccc(C4CCN(C)CC4)c(OC)c3)nc2n1-c1ccc(=O)n(C(C)C)n1 [Compound 195] | ≤ 0.03 | ≤ 1
C=CCn1c(=O)c2cnc(Nc3ccc(C4CCNCC4)c(C(F)(F)F)c3)nc2n1-c1ccc(=O)n(C(C)C)n1 [Compound 196] | ≤ 0.03 | ≤ 1
C=CCn1c(=O)c2cnc(Nc3ccc(C4CCN(C)CC4)c(C(F)(F)F)c3)nc2n1-c1ccc(=O)n(C(C)C)n1 [Compound 197] | ≤ 0.03 | ≤ 1
C=CCn1c(=O)c2cnc(Nc3ccc(C4CCNCC4)c(CC(F)(F)F)c3)nc2n1-c1ccc(=O)n(C(C)C)n1 [Compound 198] | ≤ 0.03 | ≤ 1
C=CCn1c(=O)c2cnc(Nc3ccc(C4CCN(C)CC4)c(CC(F)(F)F)c3)nc2n1-c1ccc(=O)n(C(C)C)n1 [Compound 199] | ≤ 0.03 | ≤ 1
C=CCn1c(=O)c2cnc(Nc3ccc(C4(C)CCNCC4)cc3)nc2n1-c1ccc(=O)n(C(C)C)n1 [Compound 200] | ≤ 0.03 | ≤ 1
C=CCn1c(=O)c2cnc(Nc3ccc(C4(C)CCN(C)CC4)cc3)nc2n1-c1ccc(=O)n(C(C)C)n1 [Compound 201] | ≤ 0.03 | ≤ 1
C=CCn1c(=O)c2cnc(Nc3ccc(C4(C)CCCNC4)cc3)nc2n1-c1ccc(=O)n(C(C)C)n1 (stereo not shown) [Compound 202] | ≤ 0.03 | ≤ 1
C=CCn1c(=O)c2cnc(Nc3ccc(C4(C)CCCN(C)C4)cc3)nc2n1-c1ccc(=O)n(C(C)C)n1 (stereo not shown) [Compound 203] | ≤ 0.03 | ≤ 1
C=CCn1c(=O)c2cnc(Nc3cccc(C4CCNCC4)c3)nc2n1-c1ccc(=O)n(C(C)C)n1 [Compound 204] | ≤ 0.03 | ≤ 1
